Assay results published in patent US20230346772A1, “COMBINATION TREATMENTS FOR WALDENSTROM'S MACROGLOBULINEMIA” (X4 Pharmaceuticals, Inc., priority 2019, published 2023).
Where two headings read alike, the source gives them in different places. Each block holds one molecule with its values, some of them ahead of it.

Tests used:
[1] = target: CXCR4 (Homo sapiens, UniProt P61073)
Procedure: Dose selection for the planned Phase 1b study is based on available safety data and PD of CXCR4 inhibition. […] An intrapatient dose escalation scheme is used in this study: patients will have a dose escalation in 200-mg increments to a maximum dose of 600 mg QD with the objective of achieving maximum white blood cell (WBC) mobilization.

[2] = Phase 1/2 study in renal cell carcinoma, dose-limiting toxicities; type: in vivo, human
Procedure: Doses of mavorixafor up to 600 mg daily have been tested in other clinical trials. During a Phase 1/2 study in renal cell carcinoma, a 3-patient cohort received monotherapy with 600 mg mavorixafor with 2 DLTs reported. On review, one of these (hyperglycemia) occurred in a patient with undiagnosed diabetes mellitus and the other (acute kidney injury [AKI]) occurred in a patient with pre-existing renal dysfunction and other complicating factors. Six patients received the 600 mg mavorixafor dose together with axitinib. […] Patients with a high hemoglobin A1c (HbA1c) level or with renal dysfunction are excluded from this study for safety reasons.

[3] = Terminal half-life of X4P-001; settings: in vivo
[4] = Solubility of X4P-001; type: physicochemical
[5] = system: neutrophil; test: Pharmacodynamic response of neutrophil changes (ANC); parameters: species or system human; settings: in vivo
Text: This characteristic of mavorixafor, allows for intrapatient patient dose escalation and since the steady-state ANC response is achieved rapidly as doses are escalated, the 28-day treatment duration cycle is intended to ensure that steady-state changes in ANC counts are achieved at each dose level, thereby avoiding any potential carry-over effects of previous doses. In addition, any DLT events are attributed to the current dose regardless of duration, making it unlikely that an unsafe dose is selected based on the algorithm.

[6] = Food effect on absorption
[7] = system: Waldenstrom's Macroglobulinemia; settings: cited from earlier work
[8] = system: Waldenstrom's Macroglobulinemia; settings: previously treated WM patients, cited from earlier work
[9] = system: Waldenstrom's Macroglobulinemia; settings: treatment-naive WM patients, cited from earlier work
[10] = system: CD19 B cells; settings: patients with WHIM who had mutations in CXCR4; cited from earlier work
[11] = system: WBC count; settings: similar across neutrophils, monocytes, lymphocytes including B cells; cited from earlier work

Sequence of CXCR4 (P61073 whole entry): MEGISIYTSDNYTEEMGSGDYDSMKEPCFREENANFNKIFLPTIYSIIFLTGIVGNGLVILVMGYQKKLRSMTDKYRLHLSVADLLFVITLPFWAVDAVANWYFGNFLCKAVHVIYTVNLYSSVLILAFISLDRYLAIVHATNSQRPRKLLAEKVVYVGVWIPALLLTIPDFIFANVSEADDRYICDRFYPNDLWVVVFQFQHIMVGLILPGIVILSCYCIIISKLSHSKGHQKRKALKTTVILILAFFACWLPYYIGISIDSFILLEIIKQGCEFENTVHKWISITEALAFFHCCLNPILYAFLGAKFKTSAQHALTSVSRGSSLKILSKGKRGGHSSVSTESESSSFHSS

pharmacological activity of the dose ([1]; 200 mg starting dose, prior clinical trials): pharmacologically active
half-life [3]: 12 to 24 h
solubility ([4]; aqueous buffer, pH range 3.0 to 8.0, read-out: Solubility): > 100 mg/mL
solubility ([4]; in water): only slightly soluble
Structure (SMILES): NCCCCN(Cc1nc2ccccc2[nH]1)[C@H]1CCCc2cccnc21 [X4P-001]
tolerability of the dose ([1]; human, in vivo): well-tolerated
DLTs reported ([2]; 600 mg monotherapy, 3-patient cohort): 2
patients reporting DLTs ([2]; 600 mg together with axitinib, six patients): Two of these patients reported DLTs
pharmacodynamic response of neutrophil changes [5]: rapid, occurring within hours to days

absorption when taken with food [6]: increased
Structure (SMILES): C=CC(=O)N1CCC[C@@H](n2nc(-c3ccc(Oc4ccccc4)cc3)c3c(N)ncnc32)C1 [ibrutinib, 1-[(3R)-3-[4-amino-3-(4-phenoxyphenyl)-1Hpyrazolo[3,4-d]pyrimidin-1-yl]-1-piperidinyl]-2-propen-1-one]
VGPR ([7]; patients with the MYD88^L265P CXCR4^WT mutations): 44.4%
VGPR ([7]; patients with the double mutations MYD88^L265P CXCR4^WHIM): 9.5%
MR (major response) ([8]; All Patients): 78%
VGPR (very good partial response) ([8]; All Patients): 29%
MR (major response) ([8]; MYD88^L265P CXCR4^WHIM): 67%
VGPR (very good partial response) ([8]; MYD88^L265P CXCR4^WHIM): 10%
MR (major response) ([8]; MYD88^L265P CXCR4^WT): 97%
VGPR (very good partial response) ([8]; MYD88^L265P CXCR4^WT): 44%
MR (major response) ([9]; All Patients): 83%
VGPR (very good partial response) ([9]; All Patients): 20%
MR (major response) ([9]; MYD88^L265P CXCR4^WHIM): 71%
VGPR (very good partial response) ([9]; MYD88^L265P CXCR4^WHIM): 7%
MR (major response) ([9]; MYD88^L265P CXCR4^WT): 94%
VGPR (very good partial response) ([9]; MYD88^L265P CXCR4^WT): 31%

Structure (SMILES): c1cc(CN2CCCNCCNCCCNCC2)ccc1CN1CCCNCCNCCCNCC1 [plerixafor]
fold increase in CD19 B cells [10]: greater than 40 fold
maximum fold-increase in WBCs over baseline [11]: 3 fold
